Publication PMC8550792, “Evolution of kinase polypharmacology across HSP90 drug discovery” (Cell Chemical Biology, 2021)
Read-outs that look alike come from different tables or passages of the source.

What was measured:
Assay in all cases: biochemical
Assay type in all cases: biochemical
[1] = molecular target: T1, 382 unique human kinases (Homo sapiens, UniProt P37023); settings: ALK1/ACVRL1, 10 uM; for remaining activity at 10 µM: read-out: % Enzyme Activity (relative to DMSO controls)
T1 construct: purchased Reaction Biology (HotSpot contract assay)
T1 sequence (P37023 22-503): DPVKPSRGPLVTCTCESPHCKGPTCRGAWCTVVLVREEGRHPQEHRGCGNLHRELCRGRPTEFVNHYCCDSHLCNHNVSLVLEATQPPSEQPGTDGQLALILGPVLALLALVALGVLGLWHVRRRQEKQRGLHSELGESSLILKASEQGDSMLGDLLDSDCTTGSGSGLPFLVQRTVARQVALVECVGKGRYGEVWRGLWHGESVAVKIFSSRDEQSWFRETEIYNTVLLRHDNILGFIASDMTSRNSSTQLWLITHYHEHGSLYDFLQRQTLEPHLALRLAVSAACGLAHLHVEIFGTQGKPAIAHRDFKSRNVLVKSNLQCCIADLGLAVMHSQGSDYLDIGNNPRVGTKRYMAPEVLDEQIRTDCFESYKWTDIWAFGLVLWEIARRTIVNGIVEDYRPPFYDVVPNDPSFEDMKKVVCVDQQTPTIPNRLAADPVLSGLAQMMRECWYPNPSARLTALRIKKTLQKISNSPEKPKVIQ

[2] = molecular target: T2, 382 unique human kinases (Homo sapiens, UniProt P35626); settings: GRK3, 10 uM; for remaining activity at 10 µM: read-out: % Enzyme Activity (relative to DMSO controls)
T2 construct: purchased Reaction Biology (HotSpot contract assay)
T2 sequence (P35626 1-688): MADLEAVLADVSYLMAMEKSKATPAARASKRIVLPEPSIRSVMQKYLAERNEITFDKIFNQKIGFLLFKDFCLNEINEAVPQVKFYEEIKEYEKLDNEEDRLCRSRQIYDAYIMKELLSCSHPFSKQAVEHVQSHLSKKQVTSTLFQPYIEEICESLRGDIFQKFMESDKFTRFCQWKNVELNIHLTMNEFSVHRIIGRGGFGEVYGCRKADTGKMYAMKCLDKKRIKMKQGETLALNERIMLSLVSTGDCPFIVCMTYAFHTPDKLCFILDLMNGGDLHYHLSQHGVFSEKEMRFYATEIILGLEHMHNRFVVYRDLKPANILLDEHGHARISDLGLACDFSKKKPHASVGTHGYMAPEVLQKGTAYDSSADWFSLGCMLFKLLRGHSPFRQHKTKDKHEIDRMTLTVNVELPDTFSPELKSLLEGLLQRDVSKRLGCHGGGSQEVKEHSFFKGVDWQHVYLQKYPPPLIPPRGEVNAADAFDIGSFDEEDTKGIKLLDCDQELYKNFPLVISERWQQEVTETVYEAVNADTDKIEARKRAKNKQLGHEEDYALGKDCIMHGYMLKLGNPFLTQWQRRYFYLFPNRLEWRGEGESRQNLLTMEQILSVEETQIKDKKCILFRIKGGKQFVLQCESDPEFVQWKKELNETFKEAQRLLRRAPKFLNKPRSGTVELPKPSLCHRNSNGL

[3] = molecular target: T3, 382 unique human kinases (Homo sapiens, UniProt P00519, G250E); settings: ABL1 (G250E), [ATP] 10 µM, compound 10 uM; for remaining activity at 10 µM: read-out: % Enzyme Activity (relative to DMSO controls)
T3 construct: purchased Reaction Biology (HotSpot contract assay)

[4] = molecular target: T4, 382 unique human kinases (Homo sapiens, UniProt Q13464); settings: ROCK1, 10 uM; for remaining activity at 10 µM: read-out: % Enzyme Activity (relative to DMSO controls)
T4 construct: purchased Reaction Biology (HotSpot contract assay)
T4 sequence (Q13464 whole entry): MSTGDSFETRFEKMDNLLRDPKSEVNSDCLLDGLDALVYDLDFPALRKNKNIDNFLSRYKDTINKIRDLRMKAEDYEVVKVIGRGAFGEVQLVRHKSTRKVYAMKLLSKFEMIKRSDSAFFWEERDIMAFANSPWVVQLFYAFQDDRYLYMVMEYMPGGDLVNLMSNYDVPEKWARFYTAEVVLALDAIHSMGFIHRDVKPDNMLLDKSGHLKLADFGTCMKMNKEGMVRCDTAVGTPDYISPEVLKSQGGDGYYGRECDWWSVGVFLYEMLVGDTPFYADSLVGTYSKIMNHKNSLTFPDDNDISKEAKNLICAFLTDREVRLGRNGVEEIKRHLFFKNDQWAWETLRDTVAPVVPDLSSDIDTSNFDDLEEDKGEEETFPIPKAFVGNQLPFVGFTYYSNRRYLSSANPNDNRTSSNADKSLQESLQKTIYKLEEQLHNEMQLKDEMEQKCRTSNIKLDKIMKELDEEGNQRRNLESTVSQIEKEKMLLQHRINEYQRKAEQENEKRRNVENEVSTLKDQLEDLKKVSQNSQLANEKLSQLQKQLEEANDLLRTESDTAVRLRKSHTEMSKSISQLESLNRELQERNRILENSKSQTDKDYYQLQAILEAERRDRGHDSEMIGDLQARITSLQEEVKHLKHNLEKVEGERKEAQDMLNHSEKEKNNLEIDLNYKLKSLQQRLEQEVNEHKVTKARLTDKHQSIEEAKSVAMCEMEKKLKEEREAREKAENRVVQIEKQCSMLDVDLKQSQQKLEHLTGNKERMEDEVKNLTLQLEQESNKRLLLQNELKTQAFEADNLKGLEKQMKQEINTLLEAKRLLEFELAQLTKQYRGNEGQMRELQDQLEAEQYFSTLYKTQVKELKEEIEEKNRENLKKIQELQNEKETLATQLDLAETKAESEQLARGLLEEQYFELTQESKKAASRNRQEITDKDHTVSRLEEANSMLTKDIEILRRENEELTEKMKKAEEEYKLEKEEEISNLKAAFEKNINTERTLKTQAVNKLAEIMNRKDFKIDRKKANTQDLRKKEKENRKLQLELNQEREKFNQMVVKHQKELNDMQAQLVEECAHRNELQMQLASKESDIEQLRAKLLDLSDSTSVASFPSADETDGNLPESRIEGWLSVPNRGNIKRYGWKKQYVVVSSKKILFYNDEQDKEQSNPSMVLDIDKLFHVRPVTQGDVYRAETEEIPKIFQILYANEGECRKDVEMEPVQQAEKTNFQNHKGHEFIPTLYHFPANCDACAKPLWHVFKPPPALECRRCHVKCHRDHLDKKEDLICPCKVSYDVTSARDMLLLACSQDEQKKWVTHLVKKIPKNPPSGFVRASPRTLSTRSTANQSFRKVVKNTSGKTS

[5] = molecular target: T5, 382 unique human kinases (Homo sapiens, UniProt P07949, Y791F); settings: [ATP] 15 µM, compound 10 uM, read-out: % Enzyme Activity (relative to DMSO controls)
T5 construct: purchased Reaction Biology (HotSpot contract assay)
T5 sequence (P07949 29-1114 Y791F): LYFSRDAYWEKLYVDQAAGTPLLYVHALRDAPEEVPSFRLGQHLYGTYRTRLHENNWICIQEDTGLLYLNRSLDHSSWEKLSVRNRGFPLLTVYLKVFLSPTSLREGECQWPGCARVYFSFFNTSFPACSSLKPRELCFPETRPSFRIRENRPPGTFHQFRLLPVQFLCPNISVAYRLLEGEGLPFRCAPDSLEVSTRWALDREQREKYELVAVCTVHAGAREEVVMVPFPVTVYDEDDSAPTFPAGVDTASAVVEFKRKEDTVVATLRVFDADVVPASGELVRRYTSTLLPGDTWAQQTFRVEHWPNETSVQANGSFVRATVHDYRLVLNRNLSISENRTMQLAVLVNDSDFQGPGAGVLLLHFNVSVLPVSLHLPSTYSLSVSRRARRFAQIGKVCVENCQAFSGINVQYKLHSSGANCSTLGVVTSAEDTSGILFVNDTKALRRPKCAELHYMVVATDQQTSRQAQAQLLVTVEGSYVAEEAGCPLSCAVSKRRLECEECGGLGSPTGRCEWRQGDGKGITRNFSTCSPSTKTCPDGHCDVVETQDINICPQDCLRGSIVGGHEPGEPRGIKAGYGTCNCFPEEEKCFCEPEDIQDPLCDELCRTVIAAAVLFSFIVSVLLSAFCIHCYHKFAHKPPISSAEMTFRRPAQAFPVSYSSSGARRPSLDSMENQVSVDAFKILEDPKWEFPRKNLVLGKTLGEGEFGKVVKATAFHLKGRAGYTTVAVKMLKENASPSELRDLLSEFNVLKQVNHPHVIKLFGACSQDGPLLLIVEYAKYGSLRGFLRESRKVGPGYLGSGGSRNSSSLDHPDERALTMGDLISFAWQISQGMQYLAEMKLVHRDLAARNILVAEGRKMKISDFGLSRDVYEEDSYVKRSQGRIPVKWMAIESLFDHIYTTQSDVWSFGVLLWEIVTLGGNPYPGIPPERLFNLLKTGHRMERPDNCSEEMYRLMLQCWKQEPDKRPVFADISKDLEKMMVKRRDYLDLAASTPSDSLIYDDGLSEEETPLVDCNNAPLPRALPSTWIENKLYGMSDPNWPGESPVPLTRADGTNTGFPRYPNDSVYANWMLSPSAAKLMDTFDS

[6] = molecular target: T6, 382 unique human kinases (Homo sapiens, UniProt Q52WX2); settings: SBK1, 10 uM; for remaining activity at 10 µM: read-out: % Enzyme Activity (relative to DMSO controls)
T6 construct: purchased Reaction Biology (HotSpot contract assay)

[7] = molecular target: T7, 382 unique human kinases (Homo sapiens, UniProt Q16816); settings: kinase PHKg1, compound 10 uM; for remaining activity at 10 µM: read-out: % Enzyme Activity (relative to DMSO controls)
T7 construct: purchased Reaction Biology (HotSpot contract assay)
T7 sequence (Q16816 whole entry): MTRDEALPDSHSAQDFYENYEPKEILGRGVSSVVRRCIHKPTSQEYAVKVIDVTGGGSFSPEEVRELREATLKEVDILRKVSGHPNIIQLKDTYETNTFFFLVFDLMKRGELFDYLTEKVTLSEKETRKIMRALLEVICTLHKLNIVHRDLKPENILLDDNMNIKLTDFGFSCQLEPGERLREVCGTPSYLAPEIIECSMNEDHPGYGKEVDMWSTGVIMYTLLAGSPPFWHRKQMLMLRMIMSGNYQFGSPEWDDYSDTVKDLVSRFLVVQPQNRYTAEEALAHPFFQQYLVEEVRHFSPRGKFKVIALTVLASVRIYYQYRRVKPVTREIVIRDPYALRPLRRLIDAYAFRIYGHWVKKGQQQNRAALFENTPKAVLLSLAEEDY

[8] = molecular target: T8, 382 unique human kinases (Homo sapiens, UniProt Q9UM73); settings: ALK, 10 uM; for remaining activity at 10 µM: read-out: % Enzyme Activity (relative to DMSO controls)
T8 construct: purchased Reaction Biology (HotSpot contract assay)
T8 sequence (Q9UM73 19-1620): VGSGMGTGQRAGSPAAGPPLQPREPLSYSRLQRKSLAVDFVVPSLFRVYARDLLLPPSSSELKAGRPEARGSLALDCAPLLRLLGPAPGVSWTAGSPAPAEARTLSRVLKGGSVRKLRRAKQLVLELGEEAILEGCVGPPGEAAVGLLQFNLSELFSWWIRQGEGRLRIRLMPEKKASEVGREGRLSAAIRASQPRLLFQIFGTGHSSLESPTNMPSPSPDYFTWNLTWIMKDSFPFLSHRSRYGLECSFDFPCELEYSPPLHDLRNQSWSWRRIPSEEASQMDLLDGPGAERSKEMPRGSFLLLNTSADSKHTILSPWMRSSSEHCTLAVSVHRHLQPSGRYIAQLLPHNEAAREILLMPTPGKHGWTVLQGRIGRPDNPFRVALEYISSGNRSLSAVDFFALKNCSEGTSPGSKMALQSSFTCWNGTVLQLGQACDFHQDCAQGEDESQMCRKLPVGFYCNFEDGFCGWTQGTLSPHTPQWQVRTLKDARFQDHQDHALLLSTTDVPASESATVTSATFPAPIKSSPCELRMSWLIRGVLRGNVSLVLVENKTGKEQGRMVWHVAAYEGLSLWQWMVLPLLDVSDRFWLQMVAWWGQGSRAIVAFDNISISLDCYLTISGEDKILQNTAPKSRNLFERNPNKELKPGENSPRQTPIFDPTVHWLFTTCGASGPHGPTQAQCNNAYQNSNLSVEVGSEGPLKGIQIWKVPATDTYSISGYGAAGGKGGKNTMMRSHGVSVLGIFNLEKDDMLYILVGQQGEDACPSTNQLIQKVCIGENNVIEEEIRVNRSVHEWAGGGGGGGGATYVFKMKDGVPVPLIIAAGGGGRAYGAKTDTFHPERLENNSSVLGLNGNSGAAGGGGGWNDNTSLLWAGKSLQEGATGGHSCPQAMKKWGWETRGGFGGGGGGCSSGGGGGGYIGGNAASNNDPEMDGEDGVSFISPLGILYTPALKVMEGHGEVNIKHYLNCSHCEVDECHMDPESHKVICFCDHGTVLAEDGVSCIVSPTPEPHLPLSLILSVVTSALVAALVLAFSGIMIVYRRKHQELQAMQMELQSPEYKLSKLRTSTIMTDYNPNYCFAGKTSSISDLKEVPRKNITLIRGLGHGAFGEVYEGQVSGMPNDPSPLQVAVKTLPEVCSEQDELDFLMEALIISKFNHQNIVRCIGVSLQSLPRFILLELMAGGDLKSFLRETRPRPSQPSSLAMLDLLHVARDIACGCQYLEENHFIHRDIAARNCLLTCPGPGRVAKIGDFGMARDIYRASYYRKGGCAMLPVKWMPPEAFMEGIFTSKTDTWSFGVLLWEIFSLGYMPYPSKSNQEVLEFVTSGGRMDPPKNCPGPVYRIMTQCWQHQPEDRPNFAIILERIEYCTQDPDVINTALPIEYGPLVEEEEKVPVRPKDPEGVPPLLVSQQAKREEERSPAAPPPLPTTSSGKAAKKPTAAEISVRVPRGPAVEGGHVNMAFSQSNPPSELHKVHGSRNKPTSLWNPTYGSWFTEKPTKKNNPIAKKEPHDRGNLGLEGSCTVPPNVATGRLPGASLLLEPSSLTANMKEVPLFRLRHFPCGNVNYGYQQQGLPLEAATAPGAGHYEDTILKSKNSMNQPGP

[9] = molecular target: T9, 382 unique human kinases (Homo sapiens, UniProt Q02763); settings: for remaining activity at 10 µM: read-out: % Enzyme Activity (relative to DMSO controls)
T9 construct: purchased Reaction Biology (HotSpot contract assay)

[10] = molecular target: T10, 382 unique human kinases (Homo sapiens, UniProt P06213); settings: kinase IR, compound 10 uM; for remaining activity at 10 µM: read-out: % Enzyme Activity (relative to DMSO controls)
T10 construct: purchased Reaction Biology (HotSpot contract assay)

[11] = molecular target: T11, 382 unique human kinases (Homo sapiens, UniProt Q12852); settings: kinase DLK/MAP3K12, compound 10 uM; for remaining activity at 10 µM: read-out: % Enzyme Activity (relative to DMSO controls)
T11 sequence (Q12852 1-859): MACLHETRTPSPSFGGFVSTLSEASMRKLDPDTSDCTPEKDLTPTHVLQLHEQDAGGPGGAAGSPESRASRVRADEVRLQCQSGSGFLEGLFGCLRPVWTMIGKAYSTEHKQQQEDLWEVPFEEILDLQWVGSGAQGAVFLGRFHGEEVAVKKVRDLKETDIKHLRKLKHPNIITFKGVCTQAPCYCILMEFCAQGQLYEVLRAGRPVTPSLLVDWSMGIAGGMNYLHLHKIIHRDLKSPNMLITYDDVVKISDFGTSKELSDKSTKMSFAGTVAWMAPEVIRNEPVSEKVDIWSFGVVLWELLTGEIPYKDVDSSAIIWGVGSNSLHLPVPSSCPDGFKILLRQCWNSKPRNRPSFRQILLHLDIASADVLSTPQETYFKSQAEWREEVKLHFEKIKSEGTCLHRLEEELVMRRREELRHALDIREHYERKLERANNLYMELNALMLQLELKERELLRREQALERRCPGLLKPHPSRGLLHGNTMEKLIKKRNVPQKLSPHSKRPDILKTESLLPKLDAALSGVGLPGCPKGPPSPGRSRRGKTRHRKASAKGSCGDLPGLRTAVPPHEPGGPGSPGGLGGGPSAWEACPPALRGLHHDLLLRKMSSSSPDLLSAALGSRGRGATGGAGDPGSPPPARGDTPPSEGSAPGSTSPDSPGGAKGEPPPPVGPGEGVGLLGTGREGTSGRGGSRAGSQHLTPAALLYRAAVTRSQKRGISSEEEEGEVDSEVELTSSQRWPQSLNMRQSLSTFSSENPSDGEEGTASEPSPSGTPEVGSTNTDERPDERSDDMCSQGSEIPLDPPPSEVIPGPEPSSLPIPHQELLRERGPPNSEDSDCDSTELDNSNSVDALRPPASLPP

[12] = molecular target: T12, 382 unique human kinases (Homo sapiens, UniProt P53355); settings: kinase DAPK1, compound 10 uM; for remaining activity at 10 µM: read-out: % Enzyme Activity (relative to DMSO controls)
T12 construct: purchased Reaction Biology (HotSpot contract assay)

[13] = TIE2/TEK, compound at 10 uM, duplicate values

Compound | remaining activity at 10 µM [1] | remaining activity at 10 µM [2] | remaining activity at 10 µM [3] | remaining activity at 10 µM [4] | remaining activity at 10 µM ([5]; RET (Y791F)) | remaining activity at 10 µM [6] | remaining activity at 10 µM [7] | remaining activity at 10 µM [8] | remaining activity at 10 µM ([9]; TIE2 (A1124V), 10 uM) | remaining activity at 10 µM [9, 13] | remaining activity at 10 µM [10] | remaining activity at 10 µM [11] | remaining activity at 10 µM [12] | other results
CCNC(=O)c1noc(-c2cc(C(C)C)c(O)cc2O)c1-c1ccc(CN2CCOCC2)cc1 [Luminespib] | 105% | 97.9% | 5.9% | 96.4% | 100% | 94.6% |  |  |  |  |  |  |  | % Enzyme Activity (relative to DMSO controls) [1]: 102.87%; % Enzyme Activity (relative to DMSO controls) [2]: 96.02%; % Enzyme Activity (relative to DMSO controls) [3]: 5.81%; % Enzyme Activity (relative to DMSO controls) [4]: 95.76%; remaining activity at 10 µM ([5]; […]): 99.9%; % Enzyme Activity (relative to DMSO controls) [6]: 93.40%
CC(C)c1cc(-c2n[nH]c(=O)n2-c2ccc3c(ccn3C)c2)c(O)cc1O [Ganetespib (STA9090)] |  |  |  |  |  |  | 88.5% | 67.5% | 71% | 101% | 87% | 84.7% | 83.3% | 
CCNC(=O)c1noc(-c2cc(C(C)C)c(O)cc2O)c1-c1ccc(CN2CCOCC2)cc1 [Luminespib (AUY-922)] |  |  |  |  |  |  | 98.2% | 97.2% | 96.5% | 108% | 96.8% | 122% | 83.5% | % Enzyme Activity (relative to DMSO controls) [7]: 96.94%; % Enzyme Activity (relative to DMSO controls) [8]: 95.41%; % Enzyme Activity (relative to DMSO controls) ([9]; TIE2 (A1124V), 10 uM): 95.16%; % Enzyme Activity (relative to DMSO controls) [9, 13]: 106.94%; % Enzyme Activity (relative to DMSO controls) [10]: 96.77%; % Enzyme Activity (relative to DMSO controls) [11]: 120.31%; % Enzyme Activity (relative to DMSO controls) [12]: 82.81%
CC(C)c1cc(-c2n[nH]c(=O)n2-c2ccc3c(ccn3C)c2)c(O)cc1O [Ganetespib] | 95.6% | 109% | 5.88% | 91.4% | 60.9% | 99.8% |  |  |  |  |  |  |  | 
